# Data from US11203577B2, “Sulfonyl-structure-containing triazinone derivatives, their preparation methods and their uses in insect killing and/or bacterium killing” (Nankai University, priority 2017, dated 2021).
# Key:
# [1] = test system: Rice bakanae disease; test: In vitro fungicidal activity, PDA colony diameter; type: cell-based; details: 50 mg/kg, inhibition of colony diameter; read-out: Fungicidal activity (%) Rice bakanae disease
# [2] = test system: Armyworms; test: Test of insecticidal activity against armyworms (leaf immersion); details: 3-4 days
# [3] = test system: Maize borers; test: Test of insecticidal activity against maize borers (leaf immersion); details: read-out: Mortalities (%) Maize borers
# [4] = test system: Cercospora brown spot of peanut; test: In vitro fungicidal activity, PDA colony diameter; type: cell-based; details: 96 h, 50 mg/kg, inhibition of colony diameter, read-out: Fungicidal activity (%) Cercospora brown spot of peanut
# [5] = test system: Corn southern leaf blight; test: In vitro fungicidal activity, PDA colony diameter; type: cell-based; details: 50 mg/kg, inhibition of colony diameter; read-out: Fungicidal activity (%) Corn southern leaf blight
# [6] = test system: Sclerotinia rot of colza; test: In vitro fungicidal activity, PDA colony diameter; type: cell-based; details: 96 h, 50 mg/kg, inhibition of colony diameter, read-out: Fungicidal activity (%) Sclerotinia rot of colza
# [7] = test system: mosquito larvae (Culer pipiens pallens); test: Test of insecticidal activity against mosquito larvae (checked after 24 h); details: for insecticidal activity against mosquito larvae: in vivo
# [8] = test system: Apple ring rot; test: In vitro fungicidal activity, PDA colony diameter; type: cell-based; details: inhibition of colony diameter
# Description: (§1) Here, the test is described in an example of Alternaria solani; it can be replaced by other fungi.
# (§2) In vitro testing method: Alternaria solani is inoculated to a PDA culture medium and cultured for 7 days, a fungus dish with a diameter of […] is prepared on the periphery of the colony with a punch and inoculated to a PDA culture medium that contains pesticide at a concentration of 50 mg/kg and a PDA culture medium that doesn't contain the pesticide, and are cultured for 4 days respectively; then, the colony diameters are measured, and the inhibition percentages of the pesticides are calculated by comparing with the control sample.
# [9] = test system: Capsicum phytophthora blight; test: In vitro fungicidal activity, PDA colony diameter; type: cell-based; details: 96 h
# Description: as §1, §2
# [10] = test system: Rice sheath blight; test: In vitro fungicidal activity, PDA colony diameter; type: cell-based; details: 50 mg/kg, inhibition of colony diameter; read-out: Fungicidal activity (%) Rice sheath blight
# [11] = test system: Watermelon anthracnose; test: In vitro fungicidal activity, PDA colony diameter; type: cell-based; details: 50 mg/kg, inhibition of colony diameter; read-out: Fungicidal activity (%) Watermelon anthracnose
# [12] = test system: bean aphides (Aphis laburni Kaltenbach); test: Test of insecticidal activity against aphides (leaf immersion, checked after 96 h); details: for insecticidal activity against aphides compared with pymetrozine: 5 mg/kg; for mortality at 5 mg/kg / mortality at 10 mg/kg / mortality at 100 mg/kg / mortality at 600 mg/kg: Aphis, 96 h, read-out: Mortalities (%) against aphides
# Description: The insecticidal activity against aphides is tested through the following steps: the tested aphides are bean aphides (Aphis laburni Kaltenbach), a normal colony fed with broad bean leaves in a laboratory. The pesticide is weighed, 1 mL DMF is added to dissolve the pesticide, then two drops of emulsifier, Tween-20 are added, and distilled water is added in an appropriate amount; the mixture is stirred to a homogeneous state to prepare pesticide solution at required concentration (see the following table for the specific concentration). […] In a control group, only emulsifier and solvent are added into distilled water, and the mixture is stirred to a homogeneous state.
# [13] = test system: Potato late blight; test: microbe, parasite or virus in culture; type: cell-based; details: Phytophthora infestans, 96 h, read-out: Fungicidal activity (%) Potato late blight
# [14] = test system: Tomato early blight; test: In vitro fungicidal activity, PDA colony diameter; type: cell-based, Alternaria solani; details: 50 mg/kg, inhibition of colony diameter; read-out: Fungicidal activity (%) Tomato early blight
# [15] = test system: Cotton bollworms; test: Test of insecticidal activity against cotton bollworms (pesticide mixed into feedstuff); details: read-out: Mortalities (%) Cotton bollworms
# Description: Method of testing against cotton bollworms: the pesticide is mixed into the feedstuff, i.e., 3 mL prepared solution is added into about 27 g freshly prepared feedstuff; thus, required concentration is obtained by diluting by 10 times.
# [16] = test system: Wheat head blight; test: whole plant or invertebrate; type: cell-based; details: Triticum aestivum, read-out: Fungicidal activity (%) Wheat head blight
# [17] = test system: Wheat sheath blight; test: In vitro fungicidal activity, PDA colony diameter; type: cell-based; details: 50 mg/kg, inhibition of colony diameter; read-out: Fungicidal activity (%) Wheat sheath blight
# [18] = test system: Cucumber fusarium wilt; test: In vitro fungicidal activity, PDA colony diameter; type: cell-based; details: 96 h, 50 mg/kg, inhibition of colony diameter, read-out: Fungicidal activity (%) Cucumber fusarium wilt
# [19] = 24 h, read-out: Mortalities (%) against mosquito larvae
SMILES,inhibition at 50 mg/kg [1],Mortalities (%) Armyworms ([2]; 600 mg/kg),mortality at 600 mg/kg [3],inhibition of growth at 50 mg/kg [4],inhibition at 50 mg/kg [5],inhibition of growth at 50 mg/kg [6],"mortality at 2 mg/kg [7, 19]","mortality at 5 mg/kg [7, 19]","mortality at 10 mg/kg [7, 19]",inhibition at 50 mg/kg [8],inhibition of growth at 50 mg/kg [9],inhibition at 50 mg/kg [10],inhibition at 50 mg/kg [11],mortality at 5 mg/kg [12],mortality at 10 mg/kg [12],mortality at 100 mg/kg [12],mortality at 600 mg/kg [12],inhibition of growth at 50 mg/kg [13],inhibition at 50 mg/kg [14],mortality at 600 mg/kg [15],other results
"CC1=NNC(=O)N(NS(=O)(=O)c2cccc(F)c2)C1 [Ia-17, 3-fluoro-N-(6-methyl-3-oxo-2,3-dihydro-1,2,4-triazin-4(5H)-yl)-benzenesulfonamide]",13.8%,5%,10%,16%,0%,21%,60%,100%,100%,10.8%,13.9%,20.9%,8.2%,35%,85%,100%,100%,3.1%,13.4%,5%,insecticidal activity against aphides compared with pymetrozine [12]: equivalent to the insecticidal activity of pymetrozine; inhibition at 50 mg/kg [16]: 35.1%; inhibition at 50 mg/kg [17]: 14.3%; inhibition of growth at 50 mg/kg [18]: 5.9%
"CC1=NNC(=O)N(NS(=O)(=O)c2ccc(F)cc2)C1 [Ia-18, 4-fluoro-N-(6-methyl-3-oxo-2,3-dihydro-1,2,4-triazin-4(5H)-yl)-benzenesulfonamide]",20.7%,50%,25%,12%,3.1%,21%,40%,100%,100%,8.1%,5.6%,22.1%,14.7%,45%,100%,100%,100%,18.7%,11.9%,0%,insecticidal activity against aphides compared with pymetrozine [12]: equivalent to the insecticidal activity of pymetrozine; inhibition at 50 mg/kg [16]: 2.7%; inhibition at 50 mg/kg [17]: 4.3%; inhibition of growth at 50 mg/kg [18]: 14.7%
"CC1=NNC(=O)N(NS(=O)(=O)c2ccc(F)cc2F)C1 [Ia-19, 2,4-difluoro-N-(6-methyl-3-oxo-2,3-dihydro-1,2,4-triazin-4(5H)-yl)-benzenesulfonamide]",17.2%,25%,20%,12%,18.7%,15.8%,100%,100%,100%,24.3%,5.6%,11.6%,16.4%,25%,85%,100%,100%,25%,19.4%,20%,"mortality at 1 mg/kg [7, 19]: 60%; insecticidal activity against mosquito larvae [7]: relatively high insecticidal activity; insecticidal activity against aphides compared with pymetrozine [12]: equivalent to the insecticidal activity of pymetrozine; inhibition at 50 mg/kg [16]: 5.4%; inhibition at 50 mg/kg [17]: 0%; inhibition of growth at 50 mg/kg [18]: 11.8%"
"CC1=NNC(=O)N(NS(=O)(=O)c2ccc(F)c(F)c2F)C1 [Ia-20, 2,3,4-trifluoro-N-(6-methyl-3-oxo-2,3-dihydro-1,2,4-triazin-4(5H)-yl)-benzenesulfonamide]",10.3%,65%,50%,12%,3.1%,15.8%,20%,100%,100%,4.1%,0%,9.3%,13.1%,10%,70%,100%,100%,18.7%,16.4%,20%,inhibition at 50 mg/kg [16]: 5.4%; inhibition at 50 mg/kg [17]: 17.4%; inhibition of growth at 50 mg/kg [18]: 0%
"CC1=NNC(=O)N(NS(=O)(=O)c2ccc(Cl)cc2)C1 [Ia-21, 4-chloro-N-(6-methyl-3-oxo-2,3-dihydro-1,2,4-triazin-4(5H)-yl)-benzenesulfonamide]",24.1%,75%,60%,12%,15.6%,26.3%,40%,100%,100%,8.1%,25%,11.6%,24.6%,35%,85%,100%,100%,18.7%,6%,50%,insecticidal activity against aphides compared with pymetrozine [12]: equivalent to the insecticidal activity of pymetrozine; inhibition at 50 mg/kg [16]: 16.2%; inhibition at 50 mg/kg [17]: 14.3%; inhibition of growth at 50 mg/kg [18]: 5.9%
"CC1=NNC(=O)N(NS(=O)(=O)c2ccc(Br)cc2)C1 [Ia-22, 4-bromo-N-(6-methyl-3-oxo-2,3-dihydro-1,2,4-triazin-4(5H)-yl)-benzenesulfonamide]",17.2%,100%,100%,16%,3.1%,21%,100%,100%,100%,37.8%,27.8%,23.2%,56.3%,40%,100%,100%,100%,25%,6%,100%,"Mortalities (%) Armyworms ([2]; 200 mg/kg): 70%; mortality at 200 mg/kg [3]: 65%; mortality at 0.5 mg/kg [7, 19]: 40%; mortality at 1 mg/kg [7, 19]: 100%; insecticidal activity against mosquito larvae [7]: relatively high insecticidal activity; insecticidal activity against aphides compared with pymetrozine [12]: equivalent to the insecticidal activity of pymetrozine; mortality at 200 mg/kg [15]: 80%; inhibition at 50 mg/kg [16]: 16.2%; inhibition at 50 mg/kg [17]: 8.7%; inhibition of growth at 50 mg/kg [18]: 14.7%"
"CC1=NNC(=O)N(NS(=O)(=O)c2ccc(I)cc2)C1 [Ia-23, 4-iodo-N-(6-methyl-3-oxo-2,3-dihydro-1,2,4-triazin-4(5H)-yl)-benzenesulfonamide]",20.7%,25%,20%,28%,25%,31.6%,100%,100%,100%,25.7%,38.9%,29.1%,68.4%,45%,100%,100%,100%,34.3%,19.4%,30%,"mortality at 1 mg/kg [7, 19]: 30%; insecticidal activity against mosquito larvae [7]: relatively high insecticidal activity; insecticidal activity against aphides compared with pymetrozine [12]: equivalent to the insecticidal activity of pymetrozine; inhibition at 50 mg/kg [16]: 10.8%; inhibition at 50 mg/kg [17]: 21.7%; inhibition of growth at 50 mg/kg [18]: 8.8%"
